Measured values: US10258687B2, “Development of methods for production of a whole virus vaccine candidate stock and novel adaptive mutations in hepatitis C virus” (Hvidovre Hospital, priority 2014, dated 2019)
Values joined by “and” are separate entries in the source; they are usually repeats but may differ in a detail not shown here. Equal values may be shown once. Where a name gives a salt, the structure may show the parent alone.

Assays:
[1] = test system: Huh7.5 cells; assay: Chlorpromazine cytotoxicity (cell viability assay); assay type: cell-based, Human; details: 6 hours treatment
Description: For determination of Huh7.5 cell viability in DMEM+10% FBS versus AEM, we plated 6,000 cells per well of poly-D-lysine coated 96-well plates in DMEM+10% FBS. The following day, medium was removed and cells were incubated in DMEM+10% FBS or AEM for 48 hours. Then, cell viability was determined using the CellTiter 96® AQueous One Solution Cell Proliferation Assay kit (Promega) according to the manufacturer's instructions. The % viability was calculated by relating absorbance at 490 nm determined for 10 AEM cultures to the mean absorbance of 10 replicate DMEM+10% FBS cultures. For determination of chlorpromazine cytotoxicity, chlorpromazine was diluted in DMEM+10% FBS as specified and then added to 6,000 Huh 7.5 cells/well, plated the previous day in poly-D-lysine coated 96-well plates. Cells were incubated for 6 hours before chlorpromazine was removed and DMEM+10% FBS was added. Cell viability was determined 6 and 48 hours post-treatment using the CellTiter 96® AQueous One Solution Cell Proliferation Assay kit. The % viability was calculated by relating absorbance at 490 nm determined for chlorpromazine treated cultures to the mean absorbance of at least three replicate untreated cultures.

[2] = test system: clathrin-mediated endocytosis; assay: Chlorpromazine inhibition of HCVcc and sf-HCVcc entry; assay type: cell-based, Human; details: genotype 1-6 HCVcc and sf-HCVcc, cells pre-treated, up to 10 μg/mL
Description: FIG. 11: Effect of chlorpromazine treatment on HCVcc and sf-HCVcc entry. (A-G) Chlorpromazine was diluted in DMEM+10% FBS to the concentrations indicated and then added to Huh7.5 cells, plated the previous day onto poly-D-lysine coated 96-well plates, and incubated for 30 minutes. HCVcc (black bars) were diluted in DMEM+10% FBS and sf-HCVcc (grey bars) were diluted in AEM+10% FBS and added to cultures. After 6 hours incubation, chlorpromazine-virus mixes were removed and DMEM+10% FBS was added. Cells were fixed 48 hours post infection and stained, and the number of single HCV NS5A positive cells per well was determined by automated counting as described in Materials and Methods. The HCV Core-E2 sequences of all virus stocks used were determined by direct sequencing. Sequences were identical for HCVcc and sf-HCVcc of the same recombinant. Compared to the plasmid sequence, H77(1a) viruses had acquired amino acid change I348S and J4(1b) had acquired amino acid change V710L, both estimated to be present in the majority of viral genomes. The % blocking was calculated by relating counts of experimental wells to the mean count of six replicate wells with untreated control virus. […] The % viability was calculated by relating absorbance at 490 nm determined for chlorpromazine treated cultures to the mean absorbance of three replicate untreated cultures. […]

[3] = serial passage by others; cited from earlier work
[4] = test system: Huh7.5 cells; assay: Supernatant infectivity titration (FFU assay) after transfection, infection or serial passage, Example 2; assay type: cell-based, Human; details: both kinetics experiments (MOIs of 0.003 and 0.0003)
Description: For transfection of Huh7.5 cells, 350,000 cells/well were seeded in 6-well plates (Nunc) and incubated for 24 hours. Plasmids (10 μg) were linearized by over-night digestion with XbaI (New England Biolabs). Linearized plasmids were purified using Wizard® SV Gel and PCR Clean-Up System (Promega). In vitro transcription was performed using T7 RNA polymerase (Promega) for 2 hours at 37° C. Transfection was performed by incubating 5 μL lipofectamine 2000 (Invitrogen) and the RNA transcripts in 500 μL serum-free Opti-MEM (Gibco/Invitrogen) for 20 minutes at room temperature. RNA-lipofectamine complexes were added to the pre-plated cells and incubated for 16-24 hours. Transfection efficiencies and culture spread were determined by HCV NS5A immunostaining (see below). […]
For infection of Huh7.5 cells in culture flasks, cells were seeded and incubated for 24 hours. When cells were evaluated to be ˜80% confluent, they were infected at a multiplicity of infection (MOI) of either 0.003 or 0.0003 for 3 hours (see Figure legends for details). […] Infection spread was monitored by HCV NS5A immunostaining (see below). […] For serum-free cultures, cells were infected in complete DMEM as described above and spread was monitored by NS5A immunostaining. […]
Culture supernatant infectivity titers were determined as Focus Forming Units (FFU)/mL. […]

[5] = test system: Huh7.5 cells; assay: Infectivity of virus diluted in different media (FIG. 7); assay type: cell-based, Human; details: virus diluted in AEM prior to infection
Description: (A-C) Cells were incubated with virus mixes for 3 hours. After incubation, fresh DMEM+10% FBS was added to all wells. Cells were incubated for 48 hours before they were fixed, stained and the number of single HCV NS5A positive cells per well was determined by automated counting as described in Materials and Methods. Error bars represent SEM of triplicates. For (B), the mean infectivity (HCV NS5A positive cells/well) of triplicate wells of the reference culture (DMEM+10% FBS, black bar) was set to 100%. The number of HCV NS5A positive cells/experimental well was related to this mean to calculate % infectivity relative to the reference culture.

Row | Compound | highest concentration not resulting in cytotoxic effects [1] | blocking rates [2] | peak infectivity titers of adapted stocks [3] | peak infectivity titers [4] | infectivity using AEM during the viral infection step (in words) [5]
1 | CN(C)CCCN1c2ccccc2Sc2ccc(Cl)cc21 [chlorpromazine, chlorpromazine hydrochloride] | 10 µg/mL | up to 93% | – | – | –
2 | J6/JFH1 [J6(2a)] | – | – | 8 log 10 TCID50/mL and ~6.5 log 10 TCID50/mL | 4.8 log 10 FFU/mL and 4.9 log 10 FFU/mL | infectivity was also reduced
